IC50 data for 29 compounds are collected here from patent US11524968B2, “Heterocyclic compound as a protein kinase inhibitor” (HK inno.N Corporation, priority 2017, dated 2022).

The test addresses JAK1 (Homo sapiens (Human), UniProt P23458). The test can be described thus: Analysis of JAK1 activity inhibition ability (ADP-Glo Kinase Assay). The test is classed as biochemical. Conditions: JAK1 enzyme, ADP-Glo luminescence, ATP 250 uM, IRS-itide substrate, 30° C. 40 minutes; read-out: IC50. In outline: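 JAK1 enzyme, IRS-itide substrate (40 ng/mL) and 250 uM ATP, both as prepared in kinase buffer (Tris-HCl pH 7.5, MgCl2, BSA, DTT), reacted with compound 40 min at 30 °C. ADP formed was detected by ADP-Glo luminescence; IC50 is the concentration giving 50% inhibition versus control.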

Chain of JAK1 (P23458 whole entry): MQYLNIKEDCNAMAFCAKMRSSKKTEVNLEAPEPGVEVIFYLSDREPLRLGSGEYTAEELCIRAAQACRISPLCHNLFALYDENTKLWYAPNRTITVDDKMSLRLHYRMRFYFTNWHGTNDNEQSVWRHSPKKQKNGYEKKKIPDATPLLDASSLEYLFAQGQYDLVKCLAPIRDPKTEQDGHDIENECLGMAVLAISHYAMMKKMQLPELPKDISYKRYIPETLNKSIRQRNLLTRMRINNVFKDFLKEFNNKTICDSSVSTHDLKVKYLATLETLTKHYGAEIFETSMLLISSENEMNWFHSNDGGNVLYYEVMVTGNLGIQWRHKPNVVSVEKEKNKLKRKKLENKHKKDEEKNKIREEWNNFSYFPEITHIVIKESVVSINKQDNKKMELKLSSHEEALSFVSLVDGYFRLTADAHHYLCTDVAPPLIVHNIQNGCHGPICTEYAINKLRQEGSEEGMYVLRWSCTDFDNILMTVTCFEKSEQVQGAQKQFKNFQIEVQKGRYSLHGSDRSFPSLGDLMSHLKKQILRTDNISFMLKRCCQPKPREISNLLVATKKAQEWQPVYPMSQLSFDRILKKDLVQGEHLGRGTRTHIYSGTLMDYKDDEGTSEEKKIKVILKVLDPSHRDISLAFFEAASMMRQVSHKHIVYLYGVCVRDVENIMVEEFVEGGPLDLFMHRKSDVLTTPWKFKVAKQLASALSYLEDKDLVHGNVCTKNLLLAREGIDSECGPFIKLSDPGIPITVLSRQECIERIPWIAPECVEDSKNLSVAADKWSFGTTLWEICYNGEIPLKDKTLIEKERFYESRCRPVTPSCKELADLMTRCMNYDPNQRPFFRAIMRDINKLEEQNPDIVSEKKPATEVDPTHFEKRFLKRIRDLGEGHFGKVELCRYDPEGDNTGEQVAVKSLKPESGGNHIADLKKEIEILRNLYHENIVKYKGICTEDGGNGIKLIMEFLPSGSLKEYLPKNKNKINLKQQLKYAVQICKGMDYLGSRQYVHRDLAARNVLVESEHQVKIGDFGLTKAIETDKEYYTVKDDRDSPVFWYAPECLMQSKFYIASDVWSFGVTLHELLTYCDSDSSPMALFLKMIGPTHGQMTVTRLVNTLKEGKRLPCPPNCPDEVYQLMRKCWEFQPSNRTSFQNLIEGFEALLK

As to `C[C@@H]1CC(c2cc(NC(=O)C3CC3)nc3[nH]ccc23)=CCN1C(=O)CC#N` [Example 389, (R)—N-(4-(1-(2-cyanoacetyl)-2-methyl-1,2,3,6-tetrahydropyridin-4-yl)-1H-pyrrolo[2,3-b]pyridin-6-yl)cyclopropanecarboxamide], the IC50 was below 20 nM.

Consider `C[C@H]1C=C(c2cc(NC(=O)C3CC3)nc3[nH]ccc23)CCN1C(=O)CC#N` [Example 390, (S)—N-(4-(1-(2-cyanoacetyl)-6-methyl-1,2,3,6-tetrahydropyridin-4-yl)-1H-pyrrolo[2,3-b]pyridin-6-yl)cyclopropanecarboxamide], for which the 50% inhibitory concentration (IC50) is below 20 nM.

Consider `C[C@H]1CC(c2cc(NC(=O)C3CC3)nc3[nH]ccc23)=CCN1C(=O)CC#N` [Example 391, (S)—N-(4-(1-(2-cyanoacetyl)-2-methyl-1,2,3,6-tetrahydropyridin-4-yl)-1H-pyrrolo[2,3-b]pyridin-6-yl)cyclopropanecarboxamide], for which the IC50 lay within 20 to 200 nM.

Take `CC1CN(C(=O)c2ccnc(C#N)c2)CC=C1c1cc(NC(=O)C2CC2)nc2[nH]ccc12` (centres unmarked) [Example 392, N-(4-(1-(2-cyanoisonicotinoyl)-3-methyl-1,2,3,6-tetrahydropyridin-4-yl)-1H-pyrrolo[2,3-b]pyridin-6-yl)cyclopropanecarboxamide]: the IC50 lay within 20 to 200 nM.

As to `N#CCC(=O)N1CC=C(c2cc(NC(=O)C3CC3)nc3[nH]ccc23)CC1C(F)(F)F` (centres unmarked) [Example 393, N-(4-(1-(2-cyanoacetyl)-2-(trifluoromethyl)-1,2,3,6-tetrahydropyridin-4-yl)-1H-pyrrolo[2,3-b]pyridin-6-yl)cyclopropanecarboxamide], the IC50 was below 20 nM.

As for `N#CCC(=O)N1C2C=C(c3cc(NC(=O)C4CC4)nc4[nH]ccc34)CC1CCC2` (centres unmarked) [Example 394, N-(4-(9-(2-cyanoacetyl)-9-azabicyclo[3.3.1]non-2-en-3-yl)-1H-pyrrolo[2,3-b]pyridin-6-yl)cyclopropanecarboxamide], the concentration for half-maximal inhibition (IC50) was below 20 nM.

As for `C[C@@H]1CN(C(=O)c2ccnc(F)c2)CC=C1c1cc(NC(=O)C2CC2)nc2[nH]ccc12` [Example 395, (S)—N-(4-(1-(2-fluoroisonicotinoyl)-3-methyl-1,2,3,6-tetrahydropyridin-4-yl)-1H-pyrrolo[2,3-b]pyridin-6-yl)cyclopropanecarboxamide], the IC50 was below 20 nM.

For `C[C@@H]1CN(C(=O)c2ccnc(F)c2F)CC=C1c1cc(NC(=O)C2CC2)nc2[nH]ccc12` [Example 396, (S)—N-(4-(1-(2,3-difluoroisonicotinoyl)-3-methyl-1,2,3,6-tetrahydropyridin-4-yl)-1H-pyrrolo[2,3-b]pyridin-6-yl)cyclopropanecarboxamide], the half-maximal inhibitory concentration (IC50) was below 20 nM.

`C[C@@H]1CN(C(=O)c2cccc(Br)c2)CC=C1c1cc(NC(=O)C2CC2)nc2[nH]ccc12` [Example 397, (S)—N-(4-(1-(3-bromobenzoyl)-3-methyl-1,2,3,6-tetrahydropyridin-4-yl)-1H-pyrrolo[2,3-b]pyridin-6-yl)cyclopropanecarboxamide]: the half-inhibitory concentration (IC50) is below 20 nM.

In the case of `C[C@@H]1CN(C(=O)c2ccc([N+](=O)[O-])cc2)CC=C1c1cc(NC(=O)C2CC2)nc2[nH]ccc12` [Example 398, (S)—N-(4-(3-methyl-1-(4-nitrobenzoyl)-1,2,3,6-tetrahydropyridin-4-yl)-1H-pyrrolo[2,3-b]pyridin-6-yl)cyclopropanecarboxamide], the IC50 is below 20 nM.

Regarding `C[C@@H]1CN(C(=O)c2ccnc(Cl)c2)CC=C1c1cc(NC(=O)C2CC2)nc2[nH]ccc12` [Example 399, (S)—N-(4-(1-(2-chloroisonicotinoyl)-3-methyl-1,2,3,6-tetrahydropyridin-4-yl)-1H-pyrrolo[2,3-b]pyridin-6-yl)cyclopropanecarboxamide], the half-maximal inhibitory concentration (IC50) was below 20 nM.

With `C[C@@H]1CN(C(=O)c2ccc(Cl)nc2)CC=C1c1cc(NC(=O)C2CC2)nc2[nH]ccc12` [Example 400, (S)—N-(4-(1-(6-chloronicotinoyl)-3-methyl-1,2,3,6-tetrahydropyridin-4-yl)-1H-pyrrolo[2,3-b]pyridin-6-yl)cyclopropanecarboxamide], the IC50 was below 20 nM.

Turning to `C[C@@H]1CN(C(=O)CCl)CC=C1c1cc(NC(=O)C2CC2)nc2[nH]ccc12` [Example 401, (S)—N-(4-(1-(2-chloroacetyl)-3-methyl-1,2,3,6-tetrahydropyridin-4-yl)-1H-pyrrolo[2,3-b]pyridin-6-yl)cyclopropanecarboxamide], the IC50 is 20 to 200 nM.

In the case of `C[C@@H]1CN(C(=O)c2ccncc2F)CC=C1c1cc(NC(=O)C2CC2)nc2[nH]ccc12` [Example 402, (S)—N-(4-(1-(3-fluoroisonicotinoyl)-3-methyl-1,2,3,6-tetrahydropyridin-4-yl)-1H-pyrrolo[2,3-b]pyridin-6-yl)cyclopropanecarboxamide], the IC50 is below 20 nM.

As for `C[C@@H]1CN(C(=O)C(C#N)=Cc2cccs2)CC=C1c1cc(NC(=O)C2CC2)nc2[nH]ccc12` [Example 403, (S)—N-(4-(1-(2-cyano-3-(thiophen-2-yl)acryloyl)-3-methyl-1,2,3,6-tetrahydropyridin-4-yl)-1H-pyrrolo[2,3-b]pyridin-6-yl)cyclopropanecarboxamide], the half-inhibitory concentration (IC50) lay in the range of 20 to 200 nM.

Regarding `C[C@@H]1CN(C(=O)C(=Cc2ccccc2)CC#N)CC=C1c1cc(NC(=O)C2CC2)nc2[nH]ccc12` [Example 404, (S)—N-(4-(1-(2-(cyanomethyl)-3-phenylacryloyl)-3-methyl-1,2,3,6-tetrahydropyridin-4-yl)-1H-pyrrolo[2,3-b]pyridin-6-yl)cyclopropanecarboxamide], the concentration for half-maximal inhibition (IC50) fell in the range of 20 to 200 nM.

Take `C[C@@H]1CN(C(=O)c2cccn(C)c2=O)CC=C1c1cc(NC(=O)C2CC2)nc2[nH]ccc12` [Example 405, (S)—N-(4-(3-methyl-1-(1-methyl-2-oxo-1,2-dihydropyridine-3-carbonyl)-1,2,3,6-tetrahydropyridin-4-yl)-1H-pyrrolo[2,3-b]pyridin-6-yl)cyclopropanecarboxamide]: the IC50 is above 200 nM.

For the compound `C[C@@H]1CN(C(=O)CC2(C#N)CCCCC2)CC=C1c1cc(NC(=O)C2CC2)nc2[nH]ccc12` [Example 406, (S)—N-(4-(1-(2-(1-cyanocyclohexyl)acetyl)-3-methyl-1,2,3,6-tetrahydropyridin-4-yl)-1H-pyrrolo[2,3-b]pyridin-6-yl)cyclopropanecarboxamide], the IC50 was below 20 nM.

As for `C[C@@H]1CN(C(=O)C2(C#N)CCOCC2)CC=C1c1cc(NC(=O)C2CC2)nc2[nH]ccc12` [Example 407, (S)—N-(4-(1-(4-cyanotetrahydro-2H-pyran-4-carbonyl)-3-methyl-1,2,3,6-tetrahydropyridin-4-yl)-1H-pyrrolo[2,3-b]pyridin-6-yl)cyclopropanecarboxamide], the IC50 lay within 20 to 200 nM.

For `CC(C)=C(C#N)C(=O)N1CC=C(c2cc(NC(=O)C3CC3)nc3[nH]ccc23)[C@H](C)C1` [Example 408, (S)—N-(4-(1-(2-cyano-3-methylbut-2-enoyl)-3-methyl-1,2,3,6-tetrahydropyridin-4-yl)-1H-pyrrolo[2,3-b]pyridin-6-yl)cyclopropanecarboxamide], the half-maximal inhibitory concentration (IC50) is 20 to 200 nM.

For the compound `CCC1C=C(c2cc(NC(=O)C3CC3)nc3[nH]ccc23)CC(CC)N1C(=O)CC#N` (centres unmarked) [Example 409, N-(4-(1-(2-cyanoacetyl)-2,6-diethyl-1,2,3,6-tetrahydropyridin-4-yl)-1H-pyrrolo[2,3-b]pyridin-6-yl)cyclopropanecarboxamide], the IC50 was below 20 nM.

With `CC(C)C1CC(c2cc(NC(=O)C3CC3)nc3[nH]ccc23)=CCN1C(=O)CC#N` (centres unmarked) [Example 410, N-(4-(1-(2-cyanoacetyl)-2-isopropyl-1,2,3,6-tetrahydropyridin-4-yl)-1H-pyrrolo[2,3-b]pyridin-6-yl)cyclopropanecarboxamide], the concentration for half-maximal inhibition (IC50) was below 20 nM.

As to `CCCC1C=C(c2cc(NC(=O)C3CC3)nc3[nH]ccc23)CCN1C(=O)CC#N` (centres unmarked) [Example 411, N-(4-(1-(2-cyanoacetyl)-6-propyl-1,2,3,6-tetrahydropyridin-4-yl)-1H-pyrrolo[2,3-b]pyridin-6-yl)cyclopropanecarboxamide], the concentration for half-maximal inhibition (IC50) is 20 to 200 nM.

For the compound `CC(C)(C)C1C=C(c2cc(NC(=O)C3CC3)nc3[nH]ccc23)CCN1C(=O)CC#N` (centres unmarked) [Example 412, N-(4-(6-(tert-butyl)-1-(2-cyanoacetyl)-1,2,3,6-tetrahydropyridin-4-yl)-1H-pyrrolo[2,3-b]pyridin-6-yl)cyclopropanecarboxamide], the half-maximal inhibitory concentration (IC50) is below 20 nM.

For `CCC1CC(c2cc(NC(=O)C3CC3)nc3[nH]ccc23)=CCN1C(=O)CC#N` (centres unmarked) [Example 413, N-(4-(1-(2-cyanoacetyl)-2-ethyl-1,2,3,6-tetrahydropyridin-4-yl)-1H-pyrrolo[2,3-b]pyridin-6-yl)cyclopropanecarboxamide], the IC50 is below 20 nM.

`N#CCC(=O)N1CC=C(c2cc(NC(=O)C3CC3)nc3[nH]ccc23)CC12CCC2` [Example 414, N-(4-(5-(2-cyanoacetyl)-5-azaspiro[3.5]non-7-en-8-yl)-1H-pyrrolo[2,3-b]pyridin-6-yl)cyclopropanecarboxamide]: the IC50 was below 20 nM.

Take `C[C@@H]1CN(C(=O)CC2(C#N)CC2)CC=C1c1cc(NC(=O)C2CC2)nc2[nH]ccc12` [Example 415, (S)—N-(4-(1-(2-(1-cyanocyclopropyl)acetyl)-3-methyl-1,2,3,6-tetrahydropyridin-4-yl)-1H-pyrrolo[2,3-b]pyridin-6-yl)cyclopropanecarboxamide]: the IC50 is below 20 nM.

As to `CC[C@@H]1C=C(c2cc(NC(=O)C3CC3)nc3[nH]ccc23)CCN1C(=O)CC#N` [Example 416, (R)—N-(4-(1-(2-cyanoacetyl)-6-ethyl-1,2,3,6-tetrahydropyridin-4-yl)-1H-pyrrolo[2,3-b]pyridin-6-yl)cyclopropanecarboxamide], the IC50 is below 20 nM.

With `N#CCCC(=O)N1C=C(c2cc(NC(=O)C3CC3)nc3[nH]ccc23)CCC1` [Example 418, N-(4-(1-(3-cyanopropanoyl)-1,4,5,6-tetrahydropyridin-3-yl)-1H-pyrrolo[2,3-b]pyridin-6-yl)cyclopropanecarboxamide], the half-maximal inhibitory concentration (IC50) was above 200 nM.
